We go through one molecule from ChEMBL document CHEMBL1134404, “Bisubstrate analogue inhibitors of 6-hydroxymethyl-7,8-dihydropterin pyrophosphokinase: synthesis and biochemical and crystallographic studies” (J Med Chem, 2001).

The assay is described as follows: Compound was tested for the binding affinity towards HPPK Receptor without Mg 2. The arrangement: species or system Escherichia coli.

`Nc1nc2ncc(COP(=O)(O)OP(=O)(O)OP(=O)(O)OP(=O)(O)OC[C@H]3O[C@@H](n4cnc5c(N)ncnc54)[C@H](O)[C@@H]3O)nc2c(=O)[nH]1` registered a Kd of 1.93 µM.
